What was measured:
[1] = biological target: T1, Xanthine dehydrogenase/oxidase (Bos taurus, UniProt P80457); experiment: Inhibition of bovine xanthine oxidase assessed as inhibition of uric acid formation after 30 mins by spectrophotometry
[2] = biological target: T1, Xanthine dehydrogenase/oxidase; experiment: Inhibition of bovine xanthine oxidase assessed as inhibition of uric acid formation at 10000 nM after 30 mins by spectrophotometry; conditions: cattle, 0.5 h
[3] = biological target: T1, Xanthine dehydrogenase/oxidase; experiment: Mixed-type inhibition of oxidized form of bovine xanthine oxidase assessed as inhibition of uric acid formation by Lineweaver-Burk plot; conditions: cattle
[4] = biological target: T1, Xanthine dehydrogenase/oxidase; experiment: Mixed-type inhibition of reduced form of bovine xanthine oxidase assessed as inhibition of uric acid formation by Lineweaver-Burk plot; conditions: cattle
[5] = biological target: T1, Xanthine dehydrogenase/oxidase; experiment: Mixed-type inhibition of bovine xanthine oxidase assessed as inhibition of uric acid formation by secondary Lineweaver-Burk plot
[6] = biological target: T1, Xanthine dehydrogenase/oxidase; experiment: Mixed-type inhibition of bovine xanthine oxidase assessed as inhibition of uric acid formation by Lineweaver-Burk plot

T1 sequence (P80457 whole entry): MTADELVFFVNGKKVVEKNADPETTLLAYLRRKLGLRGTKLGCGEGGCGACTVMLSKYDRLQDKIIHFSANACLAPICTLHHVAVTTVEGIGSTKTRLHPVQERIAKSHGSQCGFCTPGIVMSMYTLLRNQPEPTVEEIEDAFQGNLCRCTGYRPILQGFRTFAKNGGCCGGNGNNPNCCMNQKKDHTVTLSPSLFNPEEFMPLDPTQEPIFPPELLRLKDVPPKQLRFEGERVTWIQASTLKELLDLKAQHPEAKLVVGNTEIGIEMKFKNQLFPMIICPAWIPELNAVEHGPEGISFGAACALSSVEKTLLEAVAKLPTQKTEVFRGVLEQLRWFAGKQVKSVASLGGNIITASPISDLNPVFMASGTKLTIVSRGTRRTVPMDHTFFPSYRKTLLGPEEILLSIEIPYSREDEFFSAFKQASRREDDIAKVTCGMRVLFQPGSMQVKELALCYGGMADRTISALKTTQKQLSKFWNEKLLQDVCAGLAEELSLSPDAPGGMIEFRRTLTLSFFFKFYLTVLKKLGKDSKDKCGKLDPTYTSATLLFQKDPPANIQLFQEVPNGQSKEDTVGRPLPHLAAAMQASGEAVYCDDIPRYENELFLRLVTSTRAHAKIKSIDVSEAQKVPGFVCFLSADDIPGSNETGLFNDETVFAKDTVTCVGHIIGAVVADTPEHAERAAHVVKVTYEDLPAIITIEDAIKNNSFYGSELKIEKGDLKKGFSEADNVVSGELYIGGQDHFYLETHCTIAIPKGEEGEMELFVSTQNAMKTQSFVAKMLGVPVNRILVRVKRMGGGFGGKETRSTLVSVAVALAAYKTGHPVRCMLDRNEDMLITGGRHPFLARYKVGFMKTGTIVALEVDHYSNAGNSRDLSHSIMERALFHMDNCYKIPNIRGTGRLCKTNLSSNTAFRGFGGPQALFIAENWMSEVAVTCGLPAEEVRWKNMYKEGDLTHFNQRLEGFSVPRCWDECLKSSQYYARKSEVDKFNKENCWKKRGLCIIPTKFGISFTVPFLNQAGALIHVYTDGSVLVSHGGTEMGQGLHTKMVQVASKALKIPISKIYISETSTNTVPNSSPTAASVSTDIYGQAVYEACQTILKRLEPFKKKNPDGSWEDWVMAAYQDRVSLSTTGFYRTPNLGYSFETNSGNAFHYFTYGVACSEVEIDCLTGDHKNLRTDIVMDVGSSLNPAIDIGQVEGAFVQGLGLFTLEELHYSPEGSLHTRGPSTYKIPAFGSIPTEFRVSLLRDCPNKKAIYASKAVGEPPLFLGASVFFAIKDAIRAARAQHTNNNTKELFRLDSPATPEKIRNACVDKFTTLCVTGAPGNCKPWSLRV

CCOc1ccc(-c2nc(C)c(C(=O)O)[se]2)cc1[N+](=O)[O-]
IC50 [1]: 82.5 nM

CCCOc1ccc(-c2nc(C)c(C(=O)O)[se]2)cc1C#N
IC50 [1]: 16.2 nM

CCCCOc1ccc(-c2nc(C)c(C(=O)O)[se]2)cc1[N+](=O)[O-]
IC50 [1]: 49.2 nM

Cc1nc(-c2ccc(OCc3ccccc3)c([N+](=O)[O-])c2)[se]c1C(=O)O
IC50 [1]: 40.3 nM

C=CCOc1ccc(-c2nc(C)c(C(=O)OCC)[se]2)cc1C#N
inhibition at 10 µM [2]: < 50%

CCCCCOc1ccc(-c2nc(C)c(C(=O)O)[se]2)cc1C#N
IC50 [1]: 45.6 nM

CCCCOc1ccc(-c2nc(C)c(C(=O)O)[se]2)cc1C#N
IC50 [1]: 13.2 nM

C=CCOc1ccc(-c2nc(C)c(C(=O)O)[se]2)cc1[N+](=O)[O-]
IC50 [1]: 16.1 nM

Cc1nc(-c2ccc(OCC(C)C)c([N+](=O)[O-])c2)[se]c1C(=O)O
IC50 [1]: 33.7 nM

Cc1nc(-c2ccc(OCCC(C)C)c([N+](=O)[O-])c2)[se]c1C(=O)O
IC50 [1]: 65.6 nM

C=CCOc1ccc(-c2nc(C)c(C(=O)O)[se]2)cc1C#N
inhibition (INH) [3]: Active | IC50 [1]: 5.5 nM | inhibition (INH) [4]: Active | Ki [5]: 2.3 nM | Ki [6]: 0.9 nM

COc1ccc(-c2nc(C)c(C(=O)O)[se]2)cc1C#N
IC50 [1]: 30.6 nM

CCC(C)Oc1ccc(-c2nc(C)c(C(=O)O)[se]2)cc1C#N (stereo not drawn)
IC50 [1]: 10.4 nM

C#CCOc1ccc(-c2nc(C)c(C(=O)O)[se]2)cc1C#N
IC50 [1]: 53.8 nM
